The source of these data is patent US20260335313A1, “NOVEL CDK9 INHIBITORS” (Origenis GmbH, priority 2022, published 2026).

The test deals with T1, CDK9/CyclinT1 (Homo sapiens, UniProt P50750).
T1 construct: purchased ProQinase/Reaction Biology, USA 0371-0345-1
The experiment in a line: CDK9/T1 ADPGlo Activity (ADP Glo Kinase assay, inhibitory activity). It is filed as biochemical. To be noted: CDK9/CyclinT1 f.c. 6 nM; PDKtide 40 microM; ATP 10 microM; 10 min preincubation, 120 min at RT; 12 concentrations, 1:3 dilution from 5 microM. As to the method: ASSAY PROTOCOL for Determination of Inhibitory Activity
The testing compound was evaluated in 12 concentrations in a 1:3 dilution series, starting from 5microM as the highest concentration.
In a white 384 microplate (Greiner bio-one, Austria #784904,) with 2 microL of 3-fold concentrated CDK9/CyclinT1 (ProQinase/Reaction Biology, USA #0371-0345-1, LOT.: 012), final concentration (f.c.) 6 nM, in 1× kinase buffer, 2 microL of compound (3× fold concentrated in f.c. 1.66% DMSO/H2O) was added and incubated at Room Temperature (RT) for 10 min. Then 2 microL of Substrate/ATP-Mix (3× PDKtide f.c. 40 microM, SignalChem Biotech, Canada via Biozol, Eching, Germany #P10-58, LOT.: L2230-7 and 3× UltraPure ATP f.c. 10 microM (ADP Glo Kinase assay, Promega GmbH, Germany #V9102)) were added, mixed and incubated for 120 min at RT.
After incubation time, 5 microL of ADP Glo reagent (ready to use, ADP Glo Kinase assay, Promega GmbH, Germany #V9102) were added, mixed and incubated for 40 min at RT.
In the last step, 10 microL of ADP Glo Detection reagent (ready to use, ADP Glo Kinase assay, Promega GmbH, Germany #V9102) were added, mixed and incubated for 30 min at RT.
GloMax Discover GM3000 Reader (Promega GmbH, Germany 9700000249) was used for the readout.
The inhibitor concentration was plotted against the luminescence to determine the IC50 using XLFit 5.5 (IDBS, Guildford) to fit to a sigmoidal dose response curve with a variable slope.

T1 sequence (P50750 whole entry): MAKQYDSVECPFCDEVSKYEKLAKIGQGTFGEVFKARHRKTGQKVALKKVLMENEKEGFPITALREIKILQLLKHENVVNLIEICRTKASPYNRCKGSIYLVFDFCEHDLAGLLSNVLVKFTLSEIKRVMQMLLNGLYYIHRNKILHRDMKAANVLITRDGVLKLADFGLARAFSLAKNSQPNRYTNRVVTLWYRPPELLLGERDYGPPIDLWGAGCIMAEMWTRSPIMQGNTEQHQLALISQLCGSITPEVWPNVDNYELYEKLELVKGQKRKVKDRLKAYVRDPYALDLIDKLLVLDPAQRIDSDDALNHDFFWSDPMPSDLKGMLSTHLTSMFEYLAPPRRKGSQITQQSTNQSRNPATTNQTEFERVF
T1 sequence (O60563 whole entry partner): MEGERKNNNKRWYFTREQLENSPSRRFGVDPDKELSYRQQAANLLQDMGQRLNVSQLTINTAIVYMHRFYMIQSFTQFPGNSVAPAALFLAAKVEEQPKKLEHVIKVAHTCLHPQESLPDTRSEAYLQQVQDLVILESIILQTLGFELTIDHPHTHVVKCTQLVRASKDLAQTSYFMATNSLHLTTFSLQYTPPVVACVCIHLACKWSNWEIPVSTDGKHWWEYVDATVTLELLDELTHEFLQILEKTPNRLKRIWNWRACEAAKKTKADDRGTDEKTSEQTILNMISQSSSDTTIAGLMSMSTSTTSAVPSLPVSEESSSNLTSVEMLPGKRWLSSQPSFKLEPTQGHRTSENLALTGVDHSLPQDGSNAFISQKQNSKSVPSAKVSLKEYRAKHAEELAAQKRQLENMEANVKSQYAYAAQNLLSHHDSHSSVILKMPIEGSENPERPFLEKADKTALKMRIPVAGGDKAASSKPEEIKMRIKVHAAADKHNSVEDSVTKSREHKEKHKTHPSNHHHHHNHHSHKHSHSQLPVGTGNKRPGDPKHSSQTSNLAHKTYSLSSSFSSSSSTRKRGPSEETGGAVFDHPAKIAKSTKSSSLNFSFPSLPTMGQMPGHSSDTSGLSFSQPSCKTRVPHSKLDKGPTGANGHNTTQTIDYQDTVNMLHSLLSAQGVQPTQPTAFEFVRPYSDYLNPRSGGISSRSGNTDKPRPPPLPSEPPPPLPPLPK

On to `CC1CN(S(C)(=O)=O)CCC1Nc1cc(-c2c(F)cccc2F)nn2c(Cl)cnc12` (racemic) [Example #14, 3-chloro-6-(2,6-difluorophenyl)-N-(3-methyl-1-(methylsulfonyl)piperidin-4-yl)imidazo[1,2-b]pyridazin-8-amine], for which the IC50 (usually the concentration needed to halve the response being measured) is under 200 nM.
Take `N[C@H]1CC[C@H](Nc2cc(-c3c(F)cccc3F)nn3c(Cl)cnc23)CC1` [Example #9, (1r,4r)-N1-(3-chloro-6-(2,6-difluorophenyl)imidazo[1,2-b]pyridazin-8-yl)cyclohexane-1,4-diamine]: the IC50 is under 200 nM.
`CC1CNCCC1Nc1cc(-c2c(F)cccc2F)nn2c(Cl)cnc12` (racemic) [Example #15, 3-chloro-6-(2,6-difluorophenyl)-N-(3-methylpiperidin-4-yl)imidazo[1,2-b]pyridazin-8-amine]: the 50% inhibitory concentration (IC50) was under 200 nM.
With `CN1CCN([C@H]2CC[C@H](Nc3cc(-c4c(F)cccc4F)nn4c(Cl)cnc34)CC2)CC1` [Example #1, 3-chloro-6-(2,6-difluorophenyl)-N-((1r,4r)-4-(4-methylpiperazin-1-yl)cyclohexyl)imidazo[1,2-b]pyridazin-8-amine], the concentration for half-maximal inhibition (IC50) is under 200 nM.
The value for `CN1CCC(Nc2cc(-c3c(F)cccc3F)nn3c(Cl)cnc23)CC1` [Example #10, 3-chloro-6-(2,6-difluorophenyl)-N-(1-methylpiperidin-4-yl)imidazo[1,2-b]pyridazin-8-amine] was under 20 nM.
Compound `Fc1cccc(F)c1-c1cc(NCc2cccnc2)c2ncc(Cl)n2n1` [Example #4, 3-chloro-6-(2,6-difluorophenyl)-N-(pyridin-3-ylmethyl)imidazo[1,2-b]pyridazin-8-amine] had an IC50 of under 20 nM.
The value for `NC1CCC(Nc2c(Cl)c(-c3c(F)cccc3F)nn3c(Cl)cnc23)CC1` (stereo not shown) [Example #8, (1r,4r)-N1-(3,7-dichloro-6-(2,6-difluorophenyl)imidazo[1,2-b]pyridazin-8-yl)cyclohexane-1,4-diamine] was under 200 nM.
The value for `Cc1cc(C)c(CNc2cc(-c3c(F)cccc3F)nn3c(Cl)cnc23)cn1` [Example #3, 3-chloro-6-(2,6-difluorophenyl)-N-((4,6-dimethylpyridin-3-yl)methyl)imidazo[1,2-b]pyridazin-8-amine] was under 20 nM; that for `CC1CN(C(=O)OC(C)(C)C)CCC1Nc1cc(-c2c(F)cccc2F)nn2c(Cl)cnc12` (racemic) [Example #16, tert-butyl-4-((3-chloro-6-(2,6-difluorophenyl)imidazo[1,2-b]pyridazin-8-yl)amino)-3-methylpiperidine-1-carboxylate] was under 200 nM.
`CN1CCC(Nc2cc(-c3c(F)cccc3F)nn3c(Cl)cnc23)C1` (racemic) [Example #18, 3-chloro-6-(2,6-difluorophenyl)-N-(1-methylpyrrolidin-3-yl)imidazo[1,2-b]pyridazin-8-amine] gave an IC50 of under 20 nM.
For the compound `CS(=O)(=O)N1CCC(Nc2cc(-c3c(F)cccc3F)nn3c(Cl)cnc23)CC1` [Example #17, 3-chloro-6-(2,6-difluorophenyl)-N-(1-(methylsulfonyl)piperidin-4-yl)imidazo[1,2-b]pyridazin-8-amine], the 50% inhibitory concentration (IC50) was under 20 nM.
The value for `CN(C)[C@H]1CC[C@H](Nc2cc(-c3c(F)cccc3F)nn3c(Cl)cnc23)CC1` [Example #12, (1r,4r)-N1-(3-chloro-6-(2,6-difluorophenyl)imidazo[1,2-b]pyridazin-8-yl)-N4,N4-dimethylcyclohexane-1,4-diamine] was under 200 nM; that for `Fc1cccc(F)c1-c1cc(N[C@H]2CC[C@H](N3CCOCC3)CC2)c2ncc(Cl)n2n1` [Example #11, 3-chloro-6-(2,6-difluorophenyl)-N-((1r,4r)-4-morpholinocyclohexyl)imidazo[1,2-b]pyridazin-8-amine] was under 20 nM.
